Data reported in ChEMBL document CHEMBL1201862, “PubChem BioAssay data set” (2004).
Activity calls are given as the source filed them.

Experiments:
[1] = target: T1, Polyadenylate-binding protein 1 (Homo sapiens, UniProt P11940); test: MLLE domain peptide-binding blockers, IC50 – biochemical, fluorescence polarization, FITC-PAM2 peptide, dose response (AID 602259); format: functional; conditions: read-out: IC50_Mean
Genome polyprotein = Genome polyprotein (dengue virus type 2, UniProt P29990); test: flavivirus cap methylation enzyme inhibition – biochemical, confirmation dose response, primary screen (AID 588689); format: functional
[2] = target: T2, Voltage-gated N-type calcium channel alpha-1B subunit/Amyloid beta A4 precursor protein-binding family A member 1 (Homo sapiens, UniProt Q00975+Q02410); format: protein assay
[3] = target: T2, Voltage-gated N-type calcium channel alpha-1B subunit/Amyloid beta A4 precursor protein-binding family A member 1; format: protein assay; remark: listed apart in the source
[4] = target: T1, Polyadenylate-binding protein 1; test: MLLE binding blockers, Cy5 peptide tracer – biochemical, fluorescence polarization, Cy5-PAM2 peptide, secondary, miRNA deadenylation inhibitor project, dose response (AID 602260); format: functional; conditions: read-out: IC50_Mean
[5] = target: T3, Rac GTPase-activating protein 1 (Homo sapiens, UniProt Q9H0H5); test: blockers of MgcRacGAP-driven Rac1 GTP hydrolysis – biochemical, ADP Hunter fluorescence, primary and confirmatory, confirmation (AID 624330); format: functional
T3 sequence (Q9H0H5 whole entry): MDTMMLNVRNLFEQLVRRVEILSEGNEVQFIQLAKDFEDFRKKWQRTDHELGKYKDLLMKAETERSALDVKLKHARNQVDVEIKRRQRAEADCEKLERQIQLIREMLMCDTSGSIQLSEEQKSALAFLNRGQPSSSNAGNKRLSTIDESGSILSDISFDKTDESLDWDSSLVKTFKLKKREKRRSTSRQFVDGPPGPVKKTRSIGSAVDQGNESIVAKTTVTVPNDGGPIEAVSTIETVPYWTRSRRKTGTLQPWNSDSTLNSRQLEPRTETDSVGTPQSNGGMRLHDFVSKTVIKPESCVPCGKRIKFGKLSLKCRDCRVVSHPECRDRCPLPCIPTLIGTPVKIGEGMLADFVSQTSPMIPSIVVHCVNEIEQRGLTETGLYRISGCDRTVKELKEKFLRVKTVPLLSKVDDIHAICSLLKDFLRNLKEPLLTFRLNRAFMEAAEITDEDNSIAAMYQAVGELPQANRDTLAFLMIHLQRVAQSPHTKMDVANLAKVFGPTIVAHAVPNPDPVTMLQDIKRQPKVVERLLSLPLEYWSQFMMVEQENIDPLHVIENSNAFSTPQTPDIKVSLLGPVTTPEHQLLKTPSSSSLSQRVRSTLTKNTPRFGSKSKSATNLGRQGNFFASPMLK

[6] = target: DNA damage-inducible transcript 3 protein (Mus musculus, UniProt P35639); format: functional, Cricetulus griseus
Troponin, cardiac muscle = Troponin, cardiac muscle (Homo sapiens, UniProt P19429+P45379+P63316); test: Fluorescence-based biochemical high throughput dose response assay for activators of the calcium sensitivity of cardiac Regulated Thin Filaments (RTF). [Related pubchem assays (depositor defined):AID493008, AID493018, AID504382, AID504383]; format: protein-complex assay
[7] = target: G-protein coupled receptor 55 (Homo sapiens, UniProt Q9Y2T6); test: inhibition of LPI-stimulated GPR55 beta-arrestin translocation – imaging, U2OS, beta-arrestin-GFP, LPI agonist, primary screen (AID 2013); format: functional;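 also: antagonist potency measured as reduced agonist-driven arrestin aggregation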
[8] = luciferase reporter signal suppression in cells – H4 neuroglioma cells, luminescence, dose response (AID 1990); format: functional, cell-based
[9] = alpha-synuclein stem-loop luciferase translation blockers – H4 neuroglioma cells, luminescence, confirmation (AID 1988); format: functional, cell-based
[10] = Luminescence Cell-Based Dose Response HTS to Identify Inhibitors of 5'UTR Stem-Loop Driven Prion Protein mRNA Translation in H4 Neuroglioblastoma Cells. [Related pubchem assays: 1827 (Project Summary), 1813 (Primary HTS)]; format: functional
[11] = NIH3T3 cell viability loss – ATP luminescence, mouse fibroblasts, counter-screen, dose response (AID 2010); format: functional, cell-based;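 also: cells exposed to compound for about 90 hours before reading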
[12] = target: T4, Ubiquitin-conjugating enzyme E2 N (Homo sapiens, UniProt P61088); format: functional
T4 sequence (P61088 whole entry): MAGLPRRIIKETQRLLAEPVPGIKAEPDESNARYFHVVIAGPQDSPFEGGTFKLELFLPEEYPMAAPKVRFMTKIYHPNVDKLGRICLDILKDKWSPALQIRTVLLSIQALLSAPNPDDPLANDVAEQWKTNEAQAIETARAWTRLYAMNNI

[13] = target: T4, Ubiquitin-conjugating enzyme E2 N; format: functional; remark: listed apart in the source
Bcl-2-related protein A1 = target: T5, Bcl-2-related protein A1 (Mus musculus, UniProt Q07440); format: functional;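 also: confirmatory dose–response counterscreen on Bfl-1, used to check hits from a UBC13 polyubiquitin inhibitor campaign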
T5 sequence (Q07440 whole entry): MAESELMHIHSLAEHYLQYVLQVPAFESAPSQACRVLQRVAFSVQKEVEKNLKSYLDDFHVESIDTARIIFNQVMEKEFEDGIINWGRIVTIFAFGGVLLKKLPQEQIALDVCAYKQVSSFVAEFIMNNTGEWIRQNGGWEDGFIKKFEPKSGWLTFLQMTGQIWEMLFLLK

[14] = Trypanosoma cruzi growth suppression in host cells – NIH3T3 host cells, beta-gal luminescence, confirmation (AID 2044); format: functional, cell-based;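 also: intracellular parasites grown in NIH/3T3 mouse fibroblasts as host cells; luminescent beta-galactosidase reporter signal from transgenic T. cruzi replicating inside host cells; inhibitors lower the luminescence signal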
[15] = target: DNA dC->dU-editing enzyme APOBEC-3A (Homo sapiens, UniProt P31941); test: Dose Response confirmation of small molecule APOBEC3A DNA Deaminase Inhibitors via a fluorescence-based single-stranded DNA deaminase assay. [Related pubchem assays (depositor defined):AID493011, AID493024]; format: functional
Large T antigen = Large T antigen (Simian virus 40, UniProt P03070); format: functional, Betapolyomavirus macacae;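 also: Confirmatory-stage PubChem screen for compounds that inhibit SV40 T antigen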
[16] = target: DNA dC->dU-editing enzyme APOBEC-3G (Homo sapiens, UniProt Q9HC16); format: functional;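 also: Dose-response counterscreen measuring inhibition of APOBEC3G DNA deaminase activity, run while confirming APOBEC3A inhibitors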
[17] = viability of PTEN-deleted HCT116 cells – cell-based, HCT116 PTEN knockout, dose response (AID 1047); format: functional;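 also: HCT116 colon tumor cells with PTEN knocked out; cells exposed to compound for 60 hours before readout; potency for loss of cell viability measured by luminescence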
Beta-galactosidase [18] = target: T6, Beta-galactosidase (Escherichia coli, UniProt Q8VNN2); test: Dose response counterscreen for EBI2 assay utilizing the enzyme, b-galactosidase.; format: functional
[19] = viability of HCT116 lacking mutant beta-catenin – cell-based, human colon tumor, dose response (AID 1045); format: functional;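 also: HCT116 colon tumor cells with beta catenin knocked out; cells exposed to compound for 60 hours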
[20] = target: Eukaryotic translation initiation factor 4H (Homo sapiens, UniProt Q15056); test: inhibitors of translation initiation factor eIF4H – SAR follow-up (AID 435011); format: functional
[21] = target: T1, Polyadenylate-binding protein 1; test: PABP inhibition in translation initiation, SAR follow-up (AID 435018); format: functional
Streptococcus = test: GAS UMAA2166 growth inhibition – luminescence, BacTiterGlo, counter-screen for streptokinase expression inhibitor project, dose response (AID 1915); format: functional, organism-based;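 also: potency for reduction of bacterial viability or growth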
[22] = target: T7, Kappa-type opioid receptor (Homo sapiens, UniProt P41145); format: functional
[23] = target: T7, Kappa-type opioid receptor; format: functional; remark: listed apart in the source
Streptokinase A = target: T8, Streptokinase A (Streptococcus pyogenes serotype M1, UniProt P10520); test: viability-normalized secreted streptokinase activity reduction – plasminogen activation absorbance, OD405, dose response (AID 1914); format: functional, Streptococcus pyogenes M1 GAS;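 also: secreted streptokinase activity via plasminogen activation per viability signal from cell pellet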
T8 sequence (P10520 whole entry): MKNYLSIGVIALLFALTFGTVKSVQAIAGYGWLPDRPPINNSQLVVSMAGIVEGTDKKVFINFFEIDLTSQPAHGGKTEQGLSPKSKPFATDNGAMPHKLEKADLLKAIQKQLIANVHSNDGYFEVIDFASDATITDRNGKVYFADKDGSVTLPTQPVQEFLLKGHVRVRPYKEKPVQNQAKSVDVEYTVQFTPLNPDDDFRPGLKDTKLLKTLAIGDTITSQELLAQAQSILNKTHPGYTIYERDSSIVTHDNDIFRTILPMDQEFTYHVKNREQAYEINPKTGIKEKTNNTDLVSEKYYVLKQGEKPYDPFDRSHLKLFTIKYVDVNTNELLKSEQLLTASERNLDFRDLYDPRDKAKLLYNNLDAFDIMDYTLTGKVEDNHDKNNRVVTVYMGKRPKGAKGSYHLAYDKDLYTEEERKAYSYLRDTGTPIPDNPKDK

Estrogen receptor = target: T9, Estrogen receptor (Homo sapiens, UniProt P03372);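 also: potency for inhibiting coactivator peptide recruitment to the receptor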
T9 sequence (P03372 whole entry): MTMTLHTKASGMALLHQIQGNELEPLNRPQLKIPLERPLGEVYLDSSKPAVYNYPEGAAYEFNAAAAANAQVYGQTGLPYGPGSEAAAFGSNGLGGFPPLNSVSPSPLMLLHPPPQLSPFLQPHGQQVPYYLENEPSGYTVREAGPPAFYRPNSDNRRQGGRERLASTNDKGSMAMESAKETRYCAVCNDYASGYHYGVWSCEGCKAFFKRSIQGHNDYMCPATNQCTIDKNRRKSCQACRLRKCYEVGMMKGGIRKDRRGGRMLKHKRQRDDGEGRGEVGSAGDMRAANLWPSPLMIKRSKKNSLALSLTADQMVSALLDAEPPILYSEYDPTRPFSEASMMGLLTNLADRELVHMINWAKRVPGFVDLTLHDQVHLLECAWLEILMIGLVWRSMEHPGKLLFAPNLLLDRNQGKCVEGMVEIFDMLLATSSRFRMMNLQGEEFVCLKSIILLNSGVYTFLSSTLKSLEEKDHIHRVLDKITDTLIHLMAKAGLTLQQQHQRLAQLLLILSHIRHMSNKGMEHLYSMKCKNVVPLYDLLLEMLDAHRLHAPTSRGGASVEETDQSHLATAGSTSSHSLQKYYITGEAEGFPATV

[24] = target: T10, Type-1 angiotensin II receptor (Homo sapiens, UniProt P30556); test: antagonism of angiotensin II type 1 receptor – cell-based, uHTS hits, selectivity assay for APJ receptor antagonist project, dose response (AID 463214); format: functional;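 also: antagonist potency against angiotensin II stimulated AT1 response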
T10 sequence (P30556 whole entry): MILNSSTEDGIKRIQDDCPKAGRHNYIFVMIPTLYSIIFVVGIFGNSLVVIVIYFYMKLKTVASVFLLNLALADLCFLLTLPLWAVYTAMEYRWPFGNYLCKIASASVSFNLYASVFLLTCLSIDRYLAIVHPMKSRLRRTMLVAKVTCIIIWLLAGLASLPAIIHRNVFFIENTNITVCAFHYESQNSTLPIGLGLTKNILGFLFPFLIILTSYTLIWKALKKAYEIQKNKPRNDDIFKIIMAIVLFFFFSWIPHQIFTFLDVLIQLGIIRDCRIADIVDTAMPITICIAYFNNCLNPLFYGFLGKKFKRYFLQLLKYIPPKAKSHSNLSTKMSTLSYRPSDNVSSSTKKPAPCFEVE

Beta-galactosidase [25] = target: T6, Beta-galactosidase; format: functional
Beta-galactosidase [26] = target: T6, Beta-galactosidase; test: PubChem AID 485352; format: functional
[27] = test system: Streptococcus sp. 'group A'; test: Streptococcus pyogenes SK(-)GAS viability under kanamycin – luminescence, BacTiterGlo, confirmation, counter-screen for streptokinase expression inhibitor project, dose response (AID 1900); format: functional, organism-based

T6 sequence (Q8VNN2 whole entry): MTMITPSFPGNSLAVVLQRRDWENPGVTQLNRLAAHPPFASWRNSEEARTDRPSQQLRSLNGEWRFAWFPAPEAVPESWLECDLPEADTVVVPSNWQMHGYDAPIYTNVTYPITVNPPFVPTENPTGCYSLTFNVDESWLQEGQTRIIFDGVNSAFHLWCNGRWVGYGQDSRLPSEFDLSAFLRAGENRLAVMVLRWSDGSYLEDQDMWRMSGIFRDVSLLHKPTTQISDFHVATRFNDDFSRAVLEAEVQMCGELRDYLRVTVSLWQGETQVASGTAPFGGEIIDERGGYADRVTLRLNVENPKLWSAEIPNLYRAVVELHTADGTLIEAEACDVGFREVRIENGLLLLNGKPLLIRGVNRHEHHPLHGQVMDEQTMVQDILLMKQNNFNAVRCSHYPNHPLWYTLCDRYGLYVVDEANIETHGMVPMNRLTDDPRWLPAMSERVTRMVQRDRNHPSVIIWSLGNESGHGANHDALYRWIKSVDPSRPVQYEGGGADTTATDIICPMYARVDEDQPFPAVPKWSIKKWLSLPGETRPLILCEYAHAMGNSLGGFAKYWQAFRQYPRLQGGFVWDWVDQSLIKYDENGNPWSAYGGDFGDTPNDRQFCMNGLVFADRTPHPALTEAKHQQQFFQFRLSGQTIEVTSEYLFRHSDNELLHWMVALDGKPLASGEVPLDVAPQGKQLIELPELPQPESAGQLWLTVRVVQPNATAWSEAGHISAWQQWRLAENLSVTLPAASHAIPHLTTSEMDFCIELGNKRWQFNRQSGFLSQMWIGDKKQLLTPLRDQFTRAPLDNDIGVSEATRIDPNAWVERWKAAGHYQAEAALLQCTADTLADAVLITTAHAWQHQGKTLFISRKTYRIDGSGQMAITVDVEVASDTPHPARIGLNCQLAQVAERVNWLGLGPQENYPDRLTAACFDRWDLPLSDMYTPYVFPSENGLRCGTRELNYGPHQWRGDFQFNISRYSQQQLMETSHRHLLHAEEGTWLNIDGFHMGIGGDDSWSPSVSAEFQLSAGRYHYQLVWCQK
T2 sequence (Q00975 whole entry): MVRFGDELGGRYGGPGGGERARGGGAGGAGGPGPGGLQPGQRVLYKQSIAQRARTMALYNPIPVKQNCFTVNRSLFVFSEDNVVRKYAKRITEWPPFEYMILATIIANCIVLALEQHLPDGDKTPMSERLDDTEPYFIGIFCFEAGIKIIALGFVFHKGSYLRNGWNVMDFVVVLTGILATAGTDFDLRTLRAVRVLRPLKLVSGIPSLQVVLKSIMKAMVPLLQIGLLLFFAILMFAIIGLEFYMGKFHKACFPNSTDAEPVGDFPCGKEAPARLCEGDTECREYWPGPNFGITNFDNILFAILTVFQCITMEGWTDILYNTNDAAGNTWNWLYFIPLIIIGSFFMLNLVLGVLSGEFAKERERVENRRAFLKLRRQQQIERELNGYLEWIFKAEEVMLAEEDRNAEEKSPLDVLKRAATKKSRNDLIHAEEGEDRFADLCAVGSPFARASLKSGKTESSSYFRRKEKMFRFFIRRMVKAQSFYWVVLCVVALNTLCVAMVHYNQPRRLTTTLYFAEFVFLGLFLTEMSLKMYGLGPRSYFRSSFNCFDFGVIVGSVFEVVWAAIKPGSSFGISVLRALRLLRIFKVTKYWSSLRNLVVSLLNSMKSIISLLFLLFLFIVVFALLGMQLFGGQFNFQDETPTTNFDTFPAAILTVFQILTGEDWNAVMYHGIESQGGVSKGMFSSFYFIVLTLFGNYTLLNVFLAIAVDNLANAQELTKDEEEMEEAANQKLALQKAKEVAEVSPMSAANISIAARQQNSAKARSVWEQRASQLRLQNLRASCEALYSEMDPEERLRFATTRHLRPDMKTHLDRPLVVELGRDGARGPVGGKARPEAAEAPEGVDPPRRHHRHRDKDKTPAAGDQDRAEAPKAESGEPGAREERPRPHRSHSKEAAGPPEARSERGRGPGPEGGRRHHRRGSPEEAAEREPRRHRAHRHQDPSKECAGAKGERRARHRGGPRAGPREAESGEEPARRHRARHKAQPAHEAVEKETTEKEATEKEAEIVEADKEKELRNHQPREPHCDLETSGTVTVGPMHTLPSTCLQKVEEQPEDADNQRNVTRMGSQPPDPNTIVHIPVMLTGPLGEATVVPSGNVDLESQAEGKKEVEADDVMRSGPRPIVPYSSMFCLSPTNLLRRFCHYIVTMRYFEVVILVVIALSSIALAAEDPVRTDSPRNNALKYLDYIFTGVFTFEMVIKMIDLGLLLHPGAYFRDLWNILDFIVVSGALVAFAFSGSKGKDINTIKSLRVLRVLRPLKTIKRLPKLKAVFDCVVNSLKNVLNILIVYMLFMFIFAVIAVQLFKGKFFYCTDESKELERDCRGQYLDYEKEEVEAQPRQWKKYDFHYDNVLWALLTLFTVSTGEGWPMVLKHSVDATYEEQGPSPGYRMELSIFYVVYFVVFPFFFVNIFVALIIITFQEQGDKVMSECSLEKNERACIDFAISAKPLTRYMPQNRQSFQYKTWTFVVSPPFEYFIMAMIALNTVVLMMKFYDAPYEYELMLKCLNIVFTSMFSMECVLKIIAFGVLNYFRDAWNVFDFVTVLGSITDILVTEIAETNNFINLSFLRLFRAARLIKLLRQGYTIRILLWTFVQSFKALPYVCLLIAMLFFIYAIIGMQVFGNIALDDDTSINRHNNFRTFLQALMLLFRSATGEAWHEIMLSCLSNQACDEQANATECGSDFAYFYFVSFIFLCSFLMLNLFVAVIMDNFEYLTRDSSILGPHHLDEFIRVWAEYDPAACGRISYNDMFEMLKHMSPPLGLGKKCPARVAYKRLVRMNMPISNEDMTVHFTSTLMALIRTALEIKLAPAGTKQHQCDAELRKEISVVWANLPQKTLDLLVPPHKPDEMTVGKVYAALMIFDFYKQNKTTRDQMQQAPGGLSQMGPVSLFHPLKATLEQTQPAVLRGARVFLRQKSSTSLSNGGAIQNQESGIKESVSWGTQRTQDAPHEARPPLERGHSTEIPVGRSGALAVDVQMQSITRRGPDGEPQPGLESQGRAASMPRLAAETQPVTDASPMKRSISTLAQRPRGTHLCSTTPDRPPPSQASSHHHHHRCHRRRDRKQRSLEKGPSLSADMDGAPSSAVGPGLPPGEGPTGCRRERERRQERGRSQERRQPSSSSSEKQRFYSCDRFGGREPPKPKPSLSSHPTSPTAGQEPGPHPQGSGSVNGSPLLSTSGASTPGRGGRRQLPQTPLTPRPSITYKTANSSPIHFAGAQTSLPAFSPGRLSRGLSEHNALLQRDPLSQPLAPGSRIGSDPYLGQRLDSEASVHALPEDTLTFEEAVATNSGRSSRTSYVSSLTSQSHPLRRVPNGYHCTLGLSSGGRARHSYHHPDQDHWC
T2 sequence (Q02410 whole entry): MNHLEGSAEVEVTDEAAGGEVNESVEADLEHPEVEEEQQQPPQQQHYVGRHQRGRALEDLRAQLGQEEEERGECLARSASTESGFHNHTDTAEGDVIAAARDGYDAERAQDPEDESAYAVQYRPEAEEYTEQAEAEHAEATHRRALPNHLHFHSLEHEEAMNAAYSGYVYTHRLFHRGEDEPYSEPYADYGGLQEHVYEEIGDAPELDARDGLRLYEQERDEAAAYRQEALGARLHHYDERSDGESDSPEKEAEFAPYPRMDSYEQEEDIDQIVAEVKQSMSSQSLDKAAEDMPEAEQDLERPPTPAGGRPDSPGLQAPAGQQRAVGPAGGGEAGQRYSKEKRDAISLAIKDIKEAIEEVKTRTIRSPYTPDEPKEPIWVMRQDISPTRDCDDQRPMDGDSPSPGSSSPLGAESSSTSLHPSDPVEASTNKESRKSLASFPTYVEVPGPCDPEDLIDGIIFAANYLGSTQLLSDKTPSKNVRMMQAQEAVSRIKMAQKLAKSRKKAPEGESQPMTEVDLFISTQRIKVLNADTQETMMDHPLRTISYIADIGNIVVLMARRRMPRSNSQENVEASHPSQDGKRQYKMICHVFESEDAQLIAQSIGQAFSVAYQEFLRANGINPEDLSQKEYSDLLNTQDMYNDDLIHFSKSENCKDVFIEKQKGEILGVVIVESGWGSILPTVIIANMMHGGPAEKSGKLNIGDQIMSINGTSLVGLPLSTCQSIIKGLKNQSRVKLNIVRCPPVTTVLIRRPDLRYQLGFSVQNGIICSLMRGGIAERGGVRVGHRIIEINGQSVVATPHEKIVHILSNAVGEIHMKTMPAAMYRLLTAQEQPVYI
T1 sequence (P11940 whole entry, the tested form may be a part): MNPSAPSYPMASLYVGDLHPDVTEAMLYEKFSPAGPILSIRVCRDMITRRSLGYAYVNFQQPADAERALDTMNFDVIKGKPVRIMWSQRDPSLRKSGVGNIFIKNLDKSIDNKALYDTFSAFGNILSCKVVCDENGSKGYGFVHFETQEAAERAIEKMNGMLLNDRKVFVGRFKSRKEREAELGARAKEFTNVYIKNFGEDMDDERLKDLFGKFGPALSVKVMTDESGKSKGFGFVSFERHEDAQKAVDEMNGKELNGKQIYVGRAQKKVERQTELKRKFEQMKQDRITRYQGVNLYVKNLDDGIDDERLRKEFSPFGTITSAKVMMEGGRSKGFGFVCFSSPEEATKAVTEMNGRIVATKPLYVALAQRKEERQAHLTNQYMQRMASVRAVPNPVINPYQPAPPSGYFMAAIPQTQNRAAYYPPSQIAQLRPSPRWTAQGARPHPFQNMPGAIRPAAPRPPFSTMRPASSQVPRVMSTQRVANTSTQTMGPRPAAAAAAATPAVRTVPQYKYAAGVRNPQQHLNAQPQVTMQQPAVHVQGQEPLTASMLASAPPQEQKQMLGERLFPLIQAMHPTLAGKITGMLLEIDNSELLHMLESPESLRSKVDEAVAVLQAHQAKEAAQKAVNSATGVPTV
Chain of DNA damage-inducible transcript 3 protein (P35639 whole entry): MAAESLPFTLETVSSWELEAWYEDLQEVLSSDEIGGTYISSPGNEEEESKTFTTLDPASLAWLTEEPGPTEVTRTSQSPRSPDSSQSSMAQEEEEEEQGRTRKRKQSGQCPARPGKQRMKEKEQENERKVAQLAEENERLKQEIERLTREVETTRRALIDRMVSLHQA

In the case of `O=C(O)CCn1cc(C=C2C(=O)NC(=S)NC2=O)c(-c2ccccc2)n1`, the IC50 [1] is reported as > 66 µM (inactive), the IC50 (Genome polyprotein) is reported as 7.65 µM (active) and the IC50 [2] is reported as 19.8 µM (active). The IC50 [3] was 13.1 µM (active), the IC50 [4] was > 66 µM (inactive) and the IC50 [5] was 86.5 µM (active).
In the case of `CCOC(=O)c1sc(NN=C2C(=O)NC(=O)NC2=O)c(C(=O)OCC)c1C`, the “Absolute IC50 (CHOP)” value [6] is reported as 10 µM.
For `O=C(CSc1nnc(COc2ccccc2)o1)N1CCN(c2ccccc2)CC1`, the EC50 (Troponin, cardiac muscle) was > 71.5 µM (inactive).
With `COc1ccc(C2c3ccc(O)cc3Oc3ncn4nc(-c5cccnc5)nc4c32)cc1OC` (stereo not drawn) the IC50 [7] was 1.99 µM (active), the EC50 [8] was > 120 µM (not active) and the EC50 [9] was > 120 µM (not active). For the same molecule, the EC50 [10] was 52.3 µM (active).
In the case of `COc1cc2nc(N(CCCN(C)C)C(=O)c3ccc(S(=O)(=O)N4CCc5ccccc5C4)cc3)sc2cc1OC`, the EC50 [11] is reported as > 60 µM (not active), the IC50 [12] is reported as 8.69 µM (active) and the IC50 [13] is reported as 8.3 µM (active). The EC50 (cells) was 0.569 µM (active), the IC50 (Bcl-2-related protein A1) was > 20 µM (inactive) and the EC50 [14] was < 0.1 µM (active).
With `O=C1NC(=O)N(CCc2ccc(F)cc2)C(=O)/C1=C/c1ccco1` the IC50 [2] was > 50 µM (inactive), the IC50 [15] was 15 µM (active) and the IC50 (Large T antigen) was 12.3 µM (active). The IC50 [3] was 14.8 µM (active) and the IC50 [16] was 20.5 µM (active).
With `CC1=C(C)C[S+]([O-])N(S(=O)(=O)c2ccccc2)C1` (stereo not drawn) the IC50 [2] was > 50 µM (inactive), the IC50 (Large T antigen) was 19 µM (active) and the IC50 [3] was 41.7 µM (active).
In the case of `C=CCNC(=O)/C(C#N)=C/c1ccc(OS(=O)(=O)c2ccc(C)cc2)c(OC)c1`, the IC50 [7] is reported as 1.93 µM (active), the EC50 [17] is reported as 28.1 µM (active) and the IC50 (Beta-galactosidase [18]) is reported as > 80 µM (inactive). The EC50 [19] was 26.6 µM (active).
With `COc1ccc(C(=O)Nc2cccc3ncccc23)cc1` the IC50 [20] was > 100 µM (inactive) and the IC50 [21] was > 100 µM (inactive).
For `Oc1c(/C=N/c2cccc3cccnc23)sc2ccccc12`, the EC50 [11] was > 60 µM (not active), the EC50 (Streptococcus) was 9.99 µM (active) and the IC50 [22] was 1.12 µM. For the same molecule, the IC50 [23] was 4.86 µM (active), the EC50 (Streptokinase A) was > 150 µM (not active) and the IC50 (Estrogen receptor) was 5.15 µM (active). The IC50 [24] was 2.78 µM (active), the EC50 (Beta-galactosidase [25]) was > 31.5 µM (inactive) and the EC50 [14] was 2.58 µM (active). For the same molecule, the EC50 (Beta-galactosidase [26]) was > 40 µM (inactive) and the EC50 [27] was 7.7 µM (active).
